Measured values: patent US20120107323A1, “KINASE PROTEIN BINDING INHIBITORS” (University of Florida, priority 2009, published 2012)

Legend:
[1] = test system: esophageal patient #5 cells; test: Cell viability (MTT), esophageal patient #5 cells; assay type: cell-based; details: Homo sapiens, average IC50
Protocol: (§1) Cell viability (MTT) and CFSE Proliferation assay: Cells were plated in 96-well plates and let adhere overnight. After cell treatment, cell viability was measured by 3-(4,5-dimethylthiazol-2-yl)-2,5-diphenyl tetrazolium bromide (MTT) assay (CellTiter 96® Aqueous, Promega, Madison, Wis.).
To assimilate the effects of targeting the interaction of these proteins in direct patient specimens, a system was developed in which direct esophageal cancer specimens were grown in mice and tissue culture plates to allow fresh human tissue for experimentation. More than 20 tumors and corresponding normal tissue specimens have been obtained from cancer patients. […] To evaluate the in vitro effects of INT2-31 on patient specimens, we utilized MTT assay of cells grown in a tissue culture plate maximum up to eight passages were utilized.

C8161 melanoma cells [2] = test: Apoptosis by Hoechst staining; assay type: cell-based, human; details: 5 μM, 72 h
Protocol: Detachment assay: Cells were plated with and without compound for 24, 48, and 72 h, and detached and attached cells were counted in a hemocytometer. The percent of detachment was calculated by dividing the number of detached cells by the total number of cells and experiments performed in triplicate. Apoptosis assays: After treatment, attached and detached cells were collected, counted and prepared for terminal uridine deoxynucleotidyl transferase (TUNEL) assay by utilizing an APO-BRDU kit (BD Pharmingen, San Diego, Calif.) and cells analyzed with a FACSCalibur cytometer (Becton Dickinson, San Jose, Calif.). In addition, apoptotic cells were analyzed with Hoechst 33342 staining (1 μg/ml). The percent of apoptotic cells was calculated as the ratio of apoptotic cells to total number of cells.
In addition, apoptotic cells were also analyzed by Hoechst staining. To the prepared cells as described above, Hoechst 33342 (1 μg/ml) was added, incubated in the dark room temperature for 10 minutes, and the specimens were mounted on glass coverslips. The slides were viewed under the Zeiss microscope for apoptotic nuclei. The percent of apoptotic cells was calculated as the ratio of apoptotic cells to total number of cells. Over 300 cells per sample were analyzed.

C8161 melanoma cells [3] = test: Cell viability (MTT), C8161; assay type: cell-based, human
Protocol: as §1
(§2) Cell viability and detachment assays: After cells were treated with siRNA transfection, cell viability was measured by 3-(4,5-dimethylthiazol2-yl)-2,5-diphenyl tetrazolium bromide (MTT) assay (CellTiter 96® AQueous, Promega, Madison, Wis.). Briefly, 20 μl of the tetrazolium compound was added to each well. The cells were then incubated at 37° C. for 1 h. The plate was read at 490 nm with a plate reader to determine the viability. In detachment assays, detached and attached cells were harvested separately and counted in a hemocytometer. The percentage of detachment was calculated by dividing the number of detached cells by the total number of cells. Apoptosis assays: After treatment, attached and detached cells were collected, counted and prepared for terminal uridine deoxynucleotidyl transferase (TUNEL) assay by utilizing an APO-BRDU kit (BD Pharmingen, San Diego, Calif.) according to the manufacturer's instructions. Stained cells were analyzed with a fluorescence-activated cell sorting-Calibur flow cytometer (BD Biosciences). Calculation of the percentage of apoptotic cells in the sample was completed with CellQuest software (BD Biosciences). Apoptotic cells were also analyzed by Hoechst staining. Hoechst 33342 (1 µg/rill) was added to the fixed cells and the specimens were mounted on glass coverslips. The slides were viewed under the Zeiss microscope for apoptotic nuclei. The percent of apoptotic cells was calculated as the ratio of apoptotic cells to total number of cells.
In addition, the effect of INT2-31 on cell viability of esophageal, pancreatic and breast cancer cell lines was analyzed and the IC50 value for each cell line was determined, as shown in Table 1. […] Similar to melanoma results, INT2-31 inhibits viability more in cancer cells compared to normal cells. Sensitivity of the cells to INT2-31 varied and directly correlated to the FAK and IGF-1R expression level of the cells.
To determine the effect on melanoma cell viability, three human melanoma cell lines were exposed to increasing doses of INT2-31 for 72 h and the results compared to human melanocytes. […] The effects of INT2-31 varied in the three cell lines and was possibly related to constitutive FAK and IGF-1R activation with the least sensitive cell line (SK-MEL-28) having the greatest expression of FAK and IGF-1R.

MCF7 breast cancer cells = test: Cell viability (MTT), MCF7; assay type: cell-based; details: Homo sapiens; MCF7, 72 hours; read-out: IC50 of INT2-31, cell viability
Protocol: as §1
as §2, with “Calculation of the percentage of apoptotic cells in the sample was completed with CellQuest software (BD Biosciences).” left out, “Hoechst 33342 (1 µg/rill) was added to the fixed cells and the specimens were mounted on glass coverslips. The slides were viewed under the Zeiss microscope for apoptotic nuclei. The percent of apoptotic cells was calculated as the ratio of apoptotic cells to total number of cells.” left out

normal human melanocytes = test: Cell viability (MTT), melanocytes; assay type: cell-based; details: Melanocyte, Melonocyte, 72 hours, read-out: IC50 of INT2-31, cell viability
Protocol: as §1
as §2, with “Calculation of the percentage of apoptotic cells in the sample was completed with CellQuest software (BD Biosciences).” left out, “Hoechst 33342 (1 µg/rill) was added to the fixed cells and the specimens were mounted on glass coverslips. The slides were viewed under the Zeiss microscope for apoptotic nuclei. The percent of apoptotic cells was calculated as the ratio of apoptotic cells to total number of cells.” left out

FAK = FAK (Homo sapiens, UniProt Q05397); test: Kinase profiler screening, FAK; assay type: biochemical; details: 1 μM compound, 10 μM ATP
Protocol: Kinase Profiler Screening: Kinase specificity screening was performed with Invitrogen's SelectScreen® Kinase Profiling Services http://www.invitrogen.com/site/us/en/home/Products-and-Services/Services/Discoverv-Research/SelectScreen-Profiling-Service/SelectScreen-Kinase-Profiling-Service.html. The screening was performed with 1 μM compound, INT2-31, 10 μM ATP, and kinase substrates against ten recombinant kinases according to Z′-LYTET™ Kinase Assay. For PI3 kinase activity, 100 μM ATP, and kinase substrate were utilized with the Invitrogen Adapta® Universal Kinase Assay protocol. Tumor Growth in Nude Mice in vivo: Six week old athymic, female nude mice were purchased from Harlan Laboratory. The mice were maintained in the animal facility, and all experiments were performed in compliance with NIH animal-use guidelines and under an IACUC approved protocol. Melanoma cells were injected, 5×10^6 cells, subcutaneously. When the tumor size reached 100 mm^3, the INT2-31 was introduced by intraperitoneal injection at a dose of 15 mg/kg daily for 21 days. Tumor diameters were measured with calipers, and tumor volume in mm^3 was calculated using the formula [(width)^2×length]/2. At the end of experiment, tumor weight and volume were determined.

Chain of FAK (Q05397 whole entry): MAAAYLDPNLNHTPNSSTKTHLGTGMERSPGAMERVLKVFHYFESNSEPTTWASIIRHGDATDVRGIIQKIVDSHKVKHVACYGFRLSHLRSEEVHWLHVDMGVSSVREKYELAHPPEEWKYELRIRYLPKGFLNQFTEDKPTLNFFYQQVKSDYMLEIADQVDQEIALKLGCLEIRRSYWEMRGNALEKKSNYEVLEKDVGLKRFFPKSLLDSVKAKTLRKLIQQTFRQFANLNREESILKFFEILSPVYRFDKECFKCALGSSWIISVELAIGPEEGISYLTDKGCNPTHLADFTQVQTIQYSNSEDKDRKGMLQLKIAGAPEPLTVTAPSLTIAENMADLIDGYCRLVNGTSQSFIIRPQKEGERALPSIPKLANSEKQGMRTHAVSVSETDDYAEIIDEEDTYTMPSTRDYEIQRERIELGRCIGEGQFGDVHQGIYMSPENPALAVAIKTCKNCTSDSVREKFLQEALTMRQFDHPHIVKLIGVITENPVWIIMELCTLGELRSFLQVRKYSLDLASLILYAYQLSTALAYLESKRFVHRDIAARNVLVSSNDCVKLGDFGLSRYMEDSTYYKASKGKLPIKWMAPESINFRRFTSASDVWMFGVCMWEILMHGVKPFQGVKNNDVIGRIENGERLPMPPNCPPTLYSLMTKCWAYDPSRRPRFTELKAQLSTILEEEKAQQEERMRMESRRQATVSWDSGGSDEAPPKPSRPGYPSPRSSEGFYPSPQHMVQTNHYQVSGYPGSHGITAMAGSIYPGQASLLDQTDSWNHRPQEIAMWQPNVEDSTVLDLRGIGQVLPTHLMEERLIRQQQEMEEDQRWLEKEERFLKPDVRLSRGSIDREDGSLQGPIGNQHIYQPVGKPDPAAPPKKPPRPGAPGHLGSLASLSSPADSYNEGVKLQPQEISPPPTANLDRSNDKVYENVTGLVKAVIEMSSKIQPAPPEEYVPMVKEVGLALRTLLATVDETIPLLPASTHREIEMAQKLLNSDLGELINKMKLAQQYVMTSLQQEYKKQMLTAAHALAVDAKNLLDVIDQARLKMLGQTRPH

**Q.** How did the IC50 [1] turn out when `CSc1ncnc2c1ccn2C1O[C@H](COP(=O)(O)O)[C@@H](O)[C@H]1O` (stereo partly drawn) [INT2-31, 4-(Methylthio)-7-(5-O-phosphono-D-ribofuranosyl)-{7H-Pyrrolo[2,3-d]pyrimidine}] was run?
**A.** The IC50 was 2180 nM.

**Q.** And the “induction of apoptosis, Hoescht positive cells” value (C8161 melanoma cells [2])?
**A.** Its value is “greater than 50%”.

**Q.** And the “cell viability (in words)” value (C8161 melanoma cells [3]; C8161, MTT)?
**A.** The value was “inhibited cell viability in a dose-dependent manner”.

**Q.** What about the IC50 (C8161 melanoma cells [3]; Homo sapiens, C8161, 72 hours, read-out: IC50 of INT2-31, cell viability) of the same compound?
**A.** Its IC50 is 500 nM.

**Q.** And the “sensitivity of C8161 cells expressing FAK shRNA compared to parental and mock transfected cells” value (C8161 melanoma cells [3]; MTT, FAK shRNA1 knockdown)?
**A.** Its value is “significantly less sensitive”.

**Q.** And the IC50 (MCF7 breast cancer cells)?
**A.** The IC50 was 30 nM.

**Q.** What about the IC50 (normal human melanocytes) of the same compound?
**A.** The IC50 was 97300 nM.

**Q.** What about the “kinase activity of FAK” value (FAK) of the same compound?
**A.** Its value is “did not inhibit”.
